“Also recorded” adds a separate entry of the source.
Key:
[1] = Micropipette aspiration of giant glycodendrimersomes; conditions: for behaviour in micropipette aspiration: giant vesicles prepared by hydration; for elastic modulus of membrane: average of 11 (52dd) or 13 (51bc) vesicles; for critical area strain: giant vesicles
[2] = Cryo-TEM of assemblies formed in water; format: physicochemical
[3] = Self-assembly by injection of THF or ethanol solution into water or buffer, analysed by DLS (size, polydispersity, stability in time); conditions: for stability of glycodendrimersomes in buffer: PBS and HEPES buffers
Procedure: The resulting assemblies were first analyzed by dynamic light scattering (DLS) for size, polydispersity (PDI), and stability in time. Assemblies stable in time were subsequently analyzed by cryogenic-transmission electron microscopy (cryo-TEM) to determine their structure.
Dynamic light scattering (DLS) was performed with a Malvern Instruments particle sizer (Zetasizer® Nano S, Malvern Instruments, UK) equipped with 4 mW He—Ne laser 633 nm and avalanche photodiode positioned at 175° to the beam and temperature controlled cuvette holder. Instrument parameters were determined automatically along with measurement times. Experiments were performed in triplicate. The Janus-dendrimer (1 mg) dissolved in 100 μL of THF was injected into 2 mL of ultrapure water or buffer followed by 5 seconds of vortex mixing. DLS experiments were measured at 25° C. Different final concentration of dendrimersomes in water was prepared from varying the starting concentration of THF solution with the same injection volume (100 μL) into constant 2.0 mL of ultrapure water or buffer.

PA-IL = molecular target: T1, PA-IL (Pseudomonas aeruginosa, UniProt Q05097); experiment: Agglutination of glycodendrimersomes with PA-IL; format: binding; conditions: 10 mM HEPES, 1.0 mM MnCl2 and CaCl2
T1 construct: purchased Sigma-Aldrich

[4] = tested on: Viscum album L. agglutinin (VAA)
galectin-3 (Gal-3) = molecular target: T2, galectin-3 (Gal-3) (Homo sapiens, UniProt P17931); experiment: Agglutination of glycodendrimersomes with Gal-3; format: binding; conditions: [52bd]=1.0 mg/mL, [Gal-3]=0-4.0 mg/mL, 10 mM HEPES
T2 construct: made in house

galectin-4 (Gal-4) = molecular target: T3, galectin-4 (Gal-4) (Homo sapiens, UniProt P56470); experiment: Agglutination of glycodendrimersomes with Gal-4; format: binding; conditions: [52bd]=1.0 mg/mL, [Gal-4]=0-4.0 mg/mL, 10 mM HEPES
T3 construct: made in house
T3 sequence (P56470 1-323): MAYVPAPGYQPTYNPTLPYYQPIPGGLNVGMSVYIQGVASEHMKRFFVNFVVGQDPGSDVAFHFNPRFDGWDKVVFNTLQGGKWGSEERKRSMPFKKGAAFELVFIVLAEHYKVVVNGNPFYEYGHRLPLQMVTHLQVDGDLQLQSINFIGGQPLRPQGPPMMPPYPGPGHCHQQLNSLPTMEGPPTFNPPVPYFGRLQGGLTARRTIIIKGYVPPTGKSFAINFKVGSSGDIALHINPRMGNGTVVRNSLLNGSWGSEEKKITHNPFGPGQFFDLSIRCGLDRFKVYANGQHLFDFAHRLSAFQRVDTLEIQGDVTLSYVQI

T1 sequence (Q05097 whole entry): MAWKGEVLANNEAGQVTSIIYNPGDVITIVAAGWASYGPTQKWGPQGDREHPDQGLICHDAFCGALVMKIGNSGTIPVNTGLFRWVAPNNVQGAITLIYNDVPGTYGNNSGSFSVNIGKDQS
T2 sequence (P17931 whole entry): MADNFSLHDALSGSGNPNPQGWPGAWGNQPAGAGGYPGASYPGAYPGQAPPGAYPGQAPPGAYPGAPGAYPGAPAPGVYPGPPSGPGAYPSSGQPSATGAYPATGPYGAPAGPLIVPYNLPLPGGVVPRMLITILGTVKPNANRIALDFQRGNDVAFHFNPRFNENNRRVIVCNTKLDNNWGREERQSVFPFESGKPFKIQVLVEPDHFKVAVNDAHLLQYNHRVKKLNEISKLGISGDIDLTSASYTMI

(3,4)12G1-PE-spacer-TRZ-(galactose)2 [Compound 50aa]
behaviour in micropipette aspiration [1]: cannot be aspirated | structure of assemblies formed in water ([2]; injection into water, cryo-TEM): solid lamellae and solid vesicles

(3,4)2Ethyl8G1-PE-TRZ-(galactose)2 [Compound 48aa]
structure of assemblies formed in water ([2]; injection into water, cryo-TEM): dendrimer aggregates

(3,4)2Et8G1-PE-TRZi-3EOGal2 [Compound 49ab]
stability of glycodendrimersomes in buffer [3]: stable in buffer | structure of assemblies formed in water ([2]; injection into water, cryo-TEM): only soft glycodendrimersomes

(3,4)12G1-PE-TRZi-3EOMan2 [Compound 51ab]
structure of assemblies formed in water ([2]; injection into water, cryo-TEM): solid vesicles

(3,5)12G1-PE-TRZi-3EOMan2 [Compound 51bb]
agglutination with Con A, dependence on glycodendrimersome diameter (concanavalin A (Con A)): smallest glycodendrimersome provides the fastest agglutination | behaviour in micropipette aspiration [1]: fluid unilamellar membrane | stability of glycodendrimersomes in buffer [3]: stable in buffer | structure of assemblies formed in water ([2]; injection into water, cryo-TEM): soft vesicles

(3,5)12G1-PE-TRZi-2EOMan2 [Compound 51bc]
elastic modulus of membrane [1]: 163±30 dyne/cm | critical area strain [1]: 5-10% | behaviour in micropipette aspiration [1]: fluid unilamellar membrane | structure of assemblies formed in water ([2]; injection into water, cryo-TEM): soft vesicles

(3,4,5)12G1-PE-spacer-TRZ-(mannose)2 [Compound 50cb]
structure of assemblies formed in water ([2]; injection into water, cryo-TEM): tubular glycodendrimersome bundles; also recorded: mixtures of tubular and soft spherical glycodendrimersomes and also bundles of tubular dendrimersomes

(3,4)12G1-PE-TRZi-3EOLac2 [Compound 53aa]
structure of assemblies formed in water ([2]; injection into water, cryo-TEM): combination of soft glycodendrimersomes and rod-like micelles

(3,4,5)12G1-PE-TRZi-3EOMan2 [Compound 51cb]
morphological change on annealing ([2]; 0.5 mg/mL in water, annealing at 60° C. for 30 min): transition from solid lamellae to solid vesicles | structure of assemblies formed in water ([2]; injection into water, cryo-TEM): solid lamellae

(3,4,5)2Et8G1-PE-TRZi-Man2 [Compound 49ca]
structure of assemblies formed in water ([2]; injection into water, cryo-TEM): mixtures of soft glycodendrimersomes and dendrimer aggregates; also recorded: formation of dendrimer aggregates is dominant with only few glycodendrimersomes being observed

(3,5)2Et8G1-PE-TRZi-3EOLac2 [Compound 53ea]
stability of glycodendrimersomes in buffer [3]: stable in buffer | structure of assemblies formed in water ([2]; injection into water, cryo-TEM): soft glycodendrimersomes

(3,4)12G1-PE-spacer-TRZ-(mannose)2 [Compound 50ab]
structure of assemblies formed in water ([2]; injection into water, cryo-TEM): solid lamellae and solid vesicles

(3,4)12G1-PE-TRZ-1EOMan2 [Compound 51ad]
behaviour in micropipette aspiration [1]: cannot be aspirated | structure of assemblies formed in water ([2]; injection into water, cryo-TEM): solid vesicles

(3,4)2Et8G1-PE-TRZi-Man2 [Compound 49aa]
structure of assemblies formed in water ([2]; injection into water, cryo-TEM): only soft glycodendrimersomes

(3,4,5)2Et8G1-PE-TRZi-3EOLac2 [Compound 53fa]
stability of glycodendrimersomes in buffer [3]: stable in buffer | structure of assemblies formed in water ([2]; injection into water, cryo-TEM): soft glycodendrimersomes

(3,5)12G1-PE-spacer-TRZ-(galactose)2 [Compound 50ba]
structure of assemblies formed in water ([2]; injection into water, cryo-TEM): dendrimer aggregates

(3,4,5)12G1-PE-TRZi-1EOMan2 [Compound 51cd]
structure of assemblies formed in water ([2]; injection into water, cryo-TEM): solid lamellae

(3,4)12G1-PE-TRZ-4EOLac2 [Compound 52ad]
structure of assemblies formed in water ([2]; injection into water, cryo-TEM): mixture of soft vesicles and bundles of rod-like micelles

(3,4)12G1-PE-TRZi-2EOMan2 [Compound 51ac]
structure of assemblies formed in water ([2]; injection into water, cryo-TEM): solid vesicles

(3,5)12G1-PE-TRZi-3EOGal2 [Compound 51ba]
agglutination with PA-IL (PA-IL): agglutination; also recorded: agglutinated | stability of glycodendrimersomes in buffer [3]: stable in buffer | structure of assemblies formed in water ([2]; injection into water, cryo-TEM): soft vesicles | agglutination with VAA [4]: agglutinated

(3,4,5)12G1-PE-spacer-TRZ-(galactose)2 [Compound 50ca]
structure of assemblies formed in water ([2]; injection into water, cryo-TEM): mixture of tubular and spherical glycodendrimersomes; also recorded: mixtures of tubular and soft spherical glycodendrimersomes and also bundles of tubular dendrimersomes

(3,4)12G1-PE-TRZi-3EOGal2 [Compound 51aa]
structure of assemblies formed in water ([2]; injection into water, cryo-TEM): solid lamellae

(3,5)12G1-PE-TRZi-3EOLac2 [Compound 53ba]
stability of glycodendrimersomes in buffer [3]: stable in buffer | structure of assemblies formed in water ([2]; injection into water, cryo-TEM): soft glycodendrimersomes

(3,5)2Et8G1-PE-TRZi-Gal2 [Compound 49bc]
structure of assemblies formed in water ([2]; injection into water, cryo-TEM): mixtures of dendrimer aggregates and cubosomes

(3,4)2Et8G1-PE-TRZ1-Gal2 [Compound 49ac]
structure of assemblies formed in water ([2]; injection into water, cryo-TEM): only soft glycodendrimersomes

(3,4,5)12G1-PE-TRZi-3EOLac2 [Compound 53ca]
structure of assemblies formed in water ([2]; injection into water, cryo-TEM): solid and polygonal glycodendrimersomes; also recorded: solid vesicles and solid lamellae

(3,5)2Et8G1-PE-TRZi-3EOGal2 [Compound 49bb]
precipitation ([3]; 10 mg/mL final concentration in water): does not exhibit any sign of precipitation | stability of glycodendrimersomes in buffer [3]: stable in buffer | average vesicle size ([3]; concentration above 10 mg/mL): of the order of a micrometer | stability of vesicles in water and buffer ([3]; concentrations higher than 10 mg/mL): stable in water and buffer | structure of assemblies formed in water ([2]; injection into water, cryo-TEM): only soft glycodendrimersomes

(3,5)12G1-PE-spacer-TRZ-(mannose)2 [Compound 50bb]
structure of assemblies formed in water ([2]; injection into water, cryo-TEM): dendrimer aggregates

(3,4)12G1-PE-TRZi-Man2 [Compound 47ab]
structure of assemblies formed in water ([2]; injection into water, cryo-TEM): solid glycodendrimersomes

(3,5)2Et8G1-PE-TRZi-Man2 [Compound 49ba]
structure of assemblies formed in water ([2]; injection into water, cryo-TEM): mixtures of soft glycodendrimersomes and dendrimer aggregates; also recorded: coexistence of thick-wall glycodendrimersomes and large dendrimer aggregates

(3,4)2Et8G1-PE-TRZi-3EOLac2 [Compound 53da]
structure of assemblies formed in water ([2]; injection into water, cryo-TEM): glycodendrimersomes and solid lamellae; also recorded: soft glycodendrimersomes

(3,4,5)12G1-PE-TRZi-3EOGal2 [Compound 51ca]
structure of assemblies formed in water ([2]; injection into water, cryo-TEM): solid lamellae

(3,4,5)12G1-PE-spacer-TRZ-(4EO-lactose)2 [Compound 52dd]
elastic modulus of membrane [1]: 49.6±15 dyne/cm | critical area strain [1]: greater than 20% | behaviour in micropipette aspiration [1]: fluid unilamellar membrane; also recorded: display hysteresis | stability of glycodendrimersomes in buffer [3]: stable in buffer | structure of assemblies formed in water ([2]; injection into water, cryo-TEM): glycodendrimersomes

(3,4,5)12G1-PE-spacer-TRZ-(1EO-lactose)2 [Compound 52dc]
structure of assemblies formed in water ([2]; injection into water, cryo-TEM): glycodendrimersomes

((3,4)12G-PE-TRZ-(galactose)2 [Compound 46aa]
structure of assemblies formed in water ([2]; injection into water, cryo-TEM): sheet-like solid lamellae

(3,4)12G1-PE-TRZ-(mannose)2 [Compound 46ab]
structure of assemblies formed in water ([2]; injection into water, cryo-TEM): sheet-like solid lamellae

(3,4)2Ethyl8G1-PE-TRZ-(mannose)2 [Compound 48ab]
structure of assemblies formed in water ([2]; injection into water, cryo-TEM): dendrimer aggregates

(3,4,5)12G1-PE-TRZ-(galactose)2 [Compound 46ca]
structure of assemblies formed in water ([2]; injection into water, cryo-TEM): solid lamellae

(3,4,5)12G1-PE-TRZ-(mannose)2 [Compound 46cb]
structure of assemblies formed in water ([2]; concentrations higher than 0.5 mg/mL): polygonal glycodendrimersome | structure of assemblies formed in water ([2]; concentrations smaller than 0.5 mg/mL): nano-tubular morphology is dominant | structure of assemblies formed in water ([2]; injection into water, cryo-TEM): mixture of morphologies

(3,4,5)2Et8G1-PE-TRZi-Gal2 [Compound 49cc]
structure of assemblies formed in water ([2]; injection into water, cryo-TEM): dendrimer aggregates

(3,4,5)12G1-PE-TRZi-2EOMan2 [Compound 51cc]
structure of assemblies formed in water ([2]; injection into water, cryo-TEM): solid lamellae

(3,4,5)2Et8G1-PE-TRZi-3EOGal2 [Compound 49cb]
stability of glycodendrimersomes in buffer [3]: stable in buffer | structure of assemblies formed in water ([2]; injection into water, cryo-TEM): only soft glycodendrimersomes

(3,5)12G1-PE-TRZ-4EOLac2 [Compound 52bd]
agglutination with Gal-3 (galectin-3 (Gal-3)): agglutination | stability of glycodendrimersomes in buffer [3]: stable in buffer | agglutination with Gal-4 (galectin-4 (Gal-4)): agglutination | structure of assemblies formed in water ([2]; injection into water, cryo-TEM): glycodendrimersomes | agglutination with VAA [4]: agglutination effect can be clearly visualized

(3,5)12G1-PE-TRZi-1EOMan2 [Compound 51bd]
symmetry of glycodendrimercubosome ([2]; 1.0 mg/mL, Fourier transform of cryo-TEM): Pn3m cubic symmetry | structure of assemblies formed in water ([2]; injection into water, cryo-TEM): cubosomes
